Measured values as given in ChEMBL document CHEMBL3576799, “Aranciamycins I and J, Antimycobacterial Anthracyclines from an Australian Marine-Derived Streptomyces sp” (J Nat Prod, 2015).
Converted amounts (≈) assume the structure as drawn.

Tested on: Mycobacterium tuberculosis
Experiment: Antimycobacterial activity against Mycobacterium bovis BCG
Format: functional, organism-based
Details: variant bovis BCG

## C[C@@H]1O[C@@H](O[C@H]2C[C@](C)(O)Cc3cc4c(c(O)c32)C(=O)c2c(O)cccc2C4=O)[C@H](O)[C@H](O)[C@H]1O
  IC50: 800 nM
  MIC: 10 µM (≈ 4.86 µg/mL)

## CO[C@H]1[C@H](O[C@H]2C[C@](C)(O)C(=O)c3cc4c(c(O)c32)C(=O)c2c(O)cccc2C4=O)O[C@@H](C)[C@H](O)[C@H]1O
  IC50: 700 nM
  MIC: 10 µM (≈ 5.14 µg/mL)

## CO[C@H]1[C@H](O[C@H]2C[C@](C)(O)Cc3cc4c(c(O)c32)C(=O)c2c(O)cccc2C4=O)O[C@@H](C)[C@H](O)[C@H]1O
  IC50: 1100 nM
  MIC: 30 µM (≈ 15 µg/mL)

## CO[C@H]1[C@H](O[C@@H]2c3c(cc4c(c3O)C(=O)c3c(O)cccc3C4=O)C(=O)[C@@](C)(O)[C@H]2OC)O[C@@H](C)[C@H](O)[C@H]1O [ARANCIAMYCIN]
  IC50: 1700 nM
  MIC: 30 µM (≈ 16.3 µg/mL)
